Experiments:
[1] = target: T1, adenylate kinase (AdK) (Escherichia coli, UniProt P69441); test: NMR spectra of the ADP-saturated enzyme; assay type: binding; conditions: 30 mM MOPS, 50 mM NaCl, pH 7.0; 25 °C
T1 construct: full-length, no tag mentioned; pEAK-91 vector, AdK promotor, BL21(DE3); Blue Sepharose and size exclusion

[2] = target: T1, adenylate kinase (AdK); test: coupled spectroscopic assay, […] nm (NADH); assay type: biochemical; conditions: 0.3 mM AMP, 2 mM MgCl2, 100 mM Tris, 80 mM KCl, pH 7.5; 15, 25, 35 and 45 °C
[3] = target: T2, adenylate kinase (AdK) (Escherichia coli, UniProt P69441, Y171W); test: isothermal titration calorimetry, single-site fit; assay type: binding
T2 construct: full-length, no tag mentioned; pEAK-91 vector, AdK promotor, BL21(DE3); Blue Sepharose and size exclusion
T2 sequence (P69441 whole entry Y171W): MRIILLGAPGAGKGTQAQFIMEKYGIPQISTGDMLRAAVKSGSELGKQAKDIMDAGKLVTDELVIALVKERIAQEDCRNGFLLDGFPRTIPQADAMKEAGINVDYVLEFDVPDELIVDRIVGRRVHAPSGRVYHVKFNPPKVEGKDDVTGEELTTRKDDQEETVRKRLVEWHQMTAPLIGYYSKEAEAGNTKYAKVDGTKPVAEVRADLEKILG

[4] = target: T1, adenylate kinase (AdK); test: isothermal titration calorimetry, single-site fit; assay type: binding; conditions: 30 mM MOPS, 50 mM NaCl, pH 7.0; measured at 15, 25, 35 and 45 °C
[5] = target: T3, adenylate kinase (AdK) (Escherichia coli, UniProt P69441, P177A); test: isothermal titration calorimetry, single-site fit; assay type: binding; conditions: 30 mM MOPS, 50 mM NaCl, pH 7.0; measured at 15, 25, 35 and 45 °C
T3 construct: full-length, no tag mentioned; pEAK-91 vector, AdK promotor, BL21(DE3); Blue Sepharose and size exclusion
T3 sequence (P69441 whole entry P177A): as the sequence (P69441 whole entry Y171W) above, with W171Y, P177A counted along it

T1 sequence (P69441 whole entry): as the sequence (P69441 whole entry Y171W) above, with W171Y counted along it

SMILES: Nc1ncnc2c1ncn2[C@@H]1O[C@H](COP(=O)(O)OP(=O)(O)O)[C@@H](O)[C@H]1O [ADP]
- NMR spectra of the ADP-saturated enzyme [1]: wild-type AdK in complex with saturating concentrations of the natural substrate ADP

SMILES: Nc1ncnc2c1ncn2[C@@H]1O[C@H](COP(=O)(O)OP(=O)(O)OP(=O)(O)O)[C@@H](O)[C@H]1O [ATP]
- KM [2]: ATP affinity, KM, for the used spectroscopic assay

SMILES: Nc1ncnc2c1ncn2[C@@H]1O[C@H](COP(=O)(O)OP(=O)(O)OP(=O)(O)OP(=O)(O)OP(=O)(O)OC[C@H]2O[C@@H](n3cnc4c(N)ncnc43)[C@H](O)[C@@H]2O)[C@@H](O)[C@H]1O [Ap5a, P1,P5-di(adenosine-5′)pentaphosphate]
- Kd [3]: 250 ± 60 nM
- KD [4]: KD values for the wild type, P177A and Y171W variants
- KD [5]: KD values for the wild type, P177A and Y171W variants
